The results in this text go back to patent US12054487B2, “Muscarinic acetylcholine M1 receptor antagonists” (Contineum Therapeutics, Inc., priority 2018, dated 2024).

Common to all, as to format: cell-based
The target of one test is T1, M2 (Homo sapiens, UniProt P08172).
T1 sequence (P08172 1-466): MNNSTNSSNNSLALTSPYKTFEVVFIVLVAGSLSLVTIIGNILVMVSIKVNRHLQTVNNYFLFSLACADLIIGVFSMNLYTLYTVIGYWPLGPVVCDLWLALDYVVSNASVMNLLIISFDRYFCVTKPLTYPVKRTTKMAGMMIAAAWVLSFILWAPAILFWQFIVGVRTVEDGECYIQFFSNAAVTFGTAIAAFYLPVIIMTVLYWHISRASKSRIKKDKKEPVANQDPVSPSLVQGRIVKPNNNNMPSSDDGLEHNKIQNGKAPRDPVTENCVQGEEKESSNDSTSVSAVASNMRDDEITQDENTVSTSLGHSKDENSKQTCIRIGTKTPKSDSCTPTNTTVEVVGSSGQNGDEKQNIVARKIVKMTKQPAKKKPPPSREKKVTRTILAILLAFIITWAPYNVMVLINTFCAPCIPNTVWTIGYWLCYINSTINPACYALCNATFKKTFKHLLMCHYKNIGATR
As to the kind of experiment: In vitro functional assay of muscarinic acetylcholine receptor activity, M2. Particulars: antagonist activity; M2 method not separately described. As to the method: [The procedure below names another target; the source lists this target under the same test.] (§1) CHO-K1 cells stably expressing human M1 receptor with Aequorin (Perkin Elmer) were grown in F12 media, 10% FBS with 0.4 mg/mL geneticin and […]. Cells were grown to confluence and frozen down to be assayed at a later date. On the day of the experiment cells were thawed in a 37° C. water bath, resuspended in DMEM/HAM's F12 with HEPES (Invitrogen)+0.1% protease-free BSA (assay buffer), and spun down to remove freezing media. After centrifugation, supernatant was removed and 12 mL of assay buffer was added. Coelenterazine h (Promega) was added to the cells at a final concentration of 5 uM and incubated for 4 hours at room temperature in the dark. Compound master plate-96 deep well (Corning) were formatted in a 8-point DRC in assay buffer with 0.2% DMSO at a starting concentration of 60 uM (2×). After 4 hours of incubation, cells were plated at a concentration of 5×10^5 cells/well in 96 well white-walled, tissue culture-treated, clear-bottom plates (VWR). Compounds were added to the daughter plate, and cells plus compound were incubated at room temperature for 30 minutes in the dark.
(§2) Calcium flux was measured using the FlexStation 3 (Molecular Devices). To measure the antagonist dose-response, the EC80 of Acetylcholine was injected to the daughter plate using the automated compound transfer function of the Flex Station, and the increase in luminescence was measured over time. Antagonist activity was analyzed as a concentration dependent decrease in the EC80 acetylcholine response. Dose response curves were generated using Prism (GraphPad Software). The IC50 of the compounds was calculated from the dose response curve.

Another test deals with T2, human M1 receptor (Homo sapiens, UniProt P11229).
T2 construct: host or cells: CHO-K1
T2 sequence (P11229 1-460): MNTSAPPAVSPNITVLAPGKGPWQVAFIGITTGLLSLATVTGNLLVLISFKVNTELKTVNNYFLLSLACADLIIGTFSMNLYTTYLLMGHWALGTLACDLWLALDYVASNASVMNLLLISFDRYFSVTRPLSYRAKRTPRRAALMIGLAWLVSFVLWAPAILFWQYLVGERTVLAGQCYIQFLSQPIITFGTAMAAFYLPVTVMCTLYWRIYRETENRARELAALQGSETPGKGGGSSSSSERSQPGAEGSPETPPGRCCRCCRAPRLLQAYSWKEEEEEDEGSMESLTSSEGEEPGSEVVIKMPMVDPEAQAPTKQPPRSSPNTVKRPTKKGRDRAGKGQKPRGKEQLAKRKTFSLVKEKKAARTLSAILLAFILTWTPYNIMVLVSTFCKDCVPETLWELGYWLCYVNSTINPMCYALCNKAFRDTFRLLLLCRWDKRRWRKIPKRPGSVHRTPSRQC
As to the kind of experiment: In vitro functional assay of muscarinic acetylcholine receptor activity (aequorin calcium flux, antagonist mode vs EC80 acetylcholine), M1. Particulars: CHO-K1 cells stably expressing human M1 receptor with Aequorin; decrease in EC80 acetylcholine response. As to the method:
as §1, §2

The next test deals with M3 (Homo sapiens, UniProt P20309). The test can be described thus: In vitro functional assay of muscarinic acetylcholine receptor activity, M3. Particulars: antagonist activity; M3 method not separately described. As to the method:
[The procedure below names another target; the source lists this target under the same test.] as §1, §2

Some results are limits rather than exact numbers.

M3, sequence (P20309 whole entry): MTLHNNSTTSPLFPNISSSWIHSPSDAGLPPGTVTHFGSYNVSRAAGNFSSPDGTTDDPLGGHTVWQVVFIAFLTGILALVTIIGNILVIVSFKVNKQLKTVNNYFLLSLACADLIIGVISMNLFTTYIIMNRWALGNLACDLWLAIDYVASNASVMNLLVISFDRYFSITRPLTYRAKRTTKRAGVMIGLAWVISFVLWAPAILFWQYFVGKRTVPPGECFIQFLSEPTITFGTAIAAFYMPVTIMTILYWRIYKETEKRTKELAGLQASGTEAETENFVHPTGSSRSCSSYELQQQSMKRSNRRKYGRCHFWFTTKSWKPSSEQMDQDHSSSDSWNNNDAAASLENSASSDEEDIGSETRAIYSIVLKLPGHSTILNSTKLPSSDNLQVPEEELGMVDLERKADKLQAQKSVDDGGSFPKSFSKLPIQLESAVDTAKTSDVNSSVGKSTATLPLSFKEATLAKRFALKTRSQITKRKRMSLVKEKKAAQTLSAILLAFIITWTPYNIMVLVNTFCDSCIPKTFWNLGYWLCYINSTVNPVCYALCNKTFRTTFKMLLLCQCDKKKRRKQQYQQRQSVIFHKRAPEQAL

Usually IC50 stands for the concentration at which inhibition is half-maximal. Regarding `O=C1[C@@H](CCCc2cccc3ncnn23)C[C@H]2CN(c3ccc(C(F)(F)F)cn3)CCN12` [Example 32, (7S,8aS)-7-(3-([1,2,4]triazolo[1,5-a]pyridin-5-yl)propyl)-2-(5-(trifluoromethyl)pyridin-2-yl)hexahydropyrrolo[1,2-a]pyrazin-6(2H)-one], the IC50 against M2 was 100 to 1000 nM; on human M1 receptor, < 100 nM; at M3, 1000 to 10000 nM.

On to `N#Cc1ccc(N2CCN3C(=O)[C@@H](CCCc4cccc5nccnc45)C[C@H]3C2)nc1` [Example 60, 6-((7S,8aS)-6-oxo-7-(3-(quinoxalin-5-yl)propyl)hexahydropyrrolo[1,2-a]pyrazin-2(1H)-yl)nicotinonitrile], for which the results for the concentration for half-maximal inhibition (IC50) against M2, on human M1 receptor and against M3 were < 100 nM, < 100 nM and 100 to 1000 nM, respectively.

As for `O=C1[C@@H](CCCc2cccc3ncsc23)C[C@H]2CN(c3ccncc3F)CCN12` [Example 2, (7S,8a5)-7-(3-(benzo [d]thiazol-7-yl)propyl)-2-(3-fluoropyridin-4-yl)hexahydropyrrolo[1,2-a]pyrazin-6(2H)-one], the figures for the IC50 against M2, on human M1 receptor and against M3 were 1000 to 10000 nM, < 100 nM and 1000 to 10000 nM, respectively.

Consider `O=C1[C@@H](CCCc2cccc3ncsc23)C[C@H]2CN(c3cccnc3)CCN12` [Example 26, (7S,8aS)-7-(3-(benzo[d]thiazol-7-yl)propyl)-2-(pyridin-3-yl)hexahydropyrrolo[1,2-a]pyrazin-6(2H)-one], for which the IC50 at M2 was > 10000 nM; at human M1 receptor it was 100 to 1000 nM; at M3 it was 1000 to 10000 nM.

Regarding `N#Cc1ccc(N2CCN3C(=O)[C@@H](CCCc4cccc(F)c4C4CC4)C[C@H]3C2)nc1` [Example 25, 6-((7S,8aS)-7-(3-(2-cyclopropyl-3-fluorophenyl)propyl)-6-oxohexahydropyrrolo[1,2-a]pyrazin-2(1H)-yl)nicotinonitrile], the figures for the IC50 against M2, at human M1 receptor and at M3 were 1000 to 10000 nM, < 100 nM and 100 to 1000 nM, respectively.

With `O=C1[C@@H](CCCc2c(F)ccn3ncnc23)C[C@H]2CN(c3ccc(F)cn3)CCN12` [Example 78, (7S,8aS)-7-(3-{7-fluoro-[1,2,4]triazolo[1,5-a]pyridin-8-yl}propyl)-2-(5-fluoropyridin-2-yl)-octahydropyrrolo[1,2-a]pyrazin-6-one], the IC50 against M2 is 1000 to 10000 nM; at human M1 receptor, < 100 nM; at M3 it was 1000 to 10000 nM.

With `O=C1C(CCCc2cccc3ncnn23)C[C@H]2CN(c3ccc(F)cn3)CCN12` (mixture of isomers) [Example 41, (7S,8aS)-7-(3-([1,2,4]triazolo[1,5-a]pyridin-5-yl)propyl)-2-(5-fluoropyridin-2-yl)hexahydropyrrolo[1,2-a]pyrazin-6(2H)-one], the IC50 at M2 was 1000 to 10000 nM; on human M1 receptor, < 100 nM; against M3, 1000 to 10000 nM.

For `O=C1[C@@H](CCCc2cccc3ncnn23)C[C@H]2CN(c3ccc(F)cc3)CCN12` [Example 47, (7S,8aS)-7-(3-([1,2,4]triazolo[1,5-a]pyridin-5-yl)propyl)-2-(4-fluorophenyl)hexahydropyrrolo[1,2-a]pyrazin-6(2H)-one], the half-maximal inhibitory concentration (IC50) against M2 is > 10000 nM; at human M1 receptor it was 100 to 1000 nM; against M3 it was > 10000 nM.

Take `Cc1cnc(N2CCN3C(=O)[C@@H](CCCc4cccn5ncnc45)C[C@H]3C2)nc1` [Example 65, (7S,8aS)-7-(3-([1,2,4]triazolo[1,5-a]pyridin-8-yl)propyl)-2-(5-methylpyrimidin-2-yl)hexahydropyrrolo[1,2-a]pyrazin-6(2H)-one]: the IC50 against M2 is 1000 to 10000 nM; at human M1 receptor, 100 to 1000 nM; at M3 it was > 10000 nM.

`N#Cc1ccc(N2CCN3C(=O)[C@@H](CCCc4cccc5ncnn45)C[C@H]3C2)nc1` [Example 4, 6-((7S,8aS)-7-(3-([1,2,4]triazolo [1,5-a]pyridin-5-yl)propyl)-6-oxohexahydropyrrolo [1,2-a]pyrazin-2(1H)-yl)nicotinonitrile]: the results for the IC50 at M2, on human M1 receptor and against M3 were 100 to 1000 nM, < 100 nM and 100 to 1000 nM, respectively.

Regarding `N#Cc1cc(N2CCN3C(=O)[C@@H](CCCc4cccc5ncsc45)C[C@H]3C2)ccn1` [Example 11, 4-((7S,8aS)-7-(3-(benzo[d]thiazol-7-yl)propyl)-6-oxohexahydropyrrolo[1,2-a]pyrazin-2(1H)-yl)picolinonitrile], the IC50 on M2 was 100 to 1000 nM; at human M1 receptor it was < 100 nM; against M3, 100 to 1000 nM.

With `O=C1[C@@H](CCCc2cccc3ncnn23)C[C@H]2CN(c3ccc(C4CC4)cn3)CCN12` [Example 45, (8aS)-7-(3-([1,2,4]triazolo[1,5-a]pyridin-5-yl)propyl)-2-(5-cyclopropylpyridin-2-yl)hexahydropyrrolo[1,2-a]pyrazin-6(2H)-one], the half-maximal inhibitory concentration (IC50) at M2 was < 100 nM; on human M1 receptor, < 100 nM; at M3, 100 to 1000 nM.

As to `O=C1[C@@H](CCCc2cccc3nccn23)C[C@H]2CN(c3ccncc3F)CCN12` [Example 3, (7S,8aS)-2-(3-fluoropyridin-4-yl)-7-(3-(imidazo[1,2-a]pyridin-5-yl)propyl)hexahydropyrrolo[1,2-a]pyrazin-6(2H)-one], the IC50 at M2 is > 10000 nM; on human M1 receptor it was 100 to 1000 nM; at M3, 1000 to 10000 nM.

For `Cc1ncc(N2CCN3C(=O)C(CCCc4cccc5ncnn45)C[C@H]3C2)cc1F` (mixture of isomers) [Example 43, (7S,8aS)-7-(3-([1,2,4]triazolo[1,5-a]pyridin-5-yl)propyl)-2-(5-fluoro-6-methylpyridin-3-yl)hexahydropyrrolo[1,2-a]pyrazin-6(2H)-one], the IC50 on M2, on human M1 receptor and at M3 was 1000 to 10000 nM throughout.

Consider `O=C1[C@@H](CCCc2cccc3ncsc23)C[C@H]2CN(c3ccncc3)CCN12` [Example 28, (7S,8aS)-7-(3-(benzo[d]thiazol-7-yl)propyl)-2-(pyridin-4-yl)hexahydropyrrolo[1,2-a]pyrazin-6(2H)-one], for which the concentration for half-maximal inhibition (IC50) was 100 to 1000 nM on M2, < 100 nM at human M1 receptor and 100 to 1000 nM against M3.

On to `N#Cc1ccc(N2CCN3C(=O)[C@@H](CCCc4cccc5ncccc45)C[C@H]3C2)nc1` [Example 59, 6-((7S,8aS)-6-oxo-7-(3-(quinolin-5-yl)propyl)hexahydropyrrolo[1,2-a]pyrazin-2(1H)-yl)nicotinonitrile], for which the IC50 is 100 to 1000 nM against M2, < 100 nM on human M1 receptor and 1000 to 10000 nM against M3.

As to `Cc1ccc(N2CCN3C(=O)[C@@H](CCCc4cccc5ncnn45)C[C@H]3C2)nn1` [Example 48, (7S,8aS)-7-(3-([1,2,4]triazolo[1,5-a]pyridin-5-yl)propyl)-2-(6-methylpyridazin-3-yl)hexahydropyrrolo[1,2-a]pyrazin-6(2H)-one], the values for the half-maximal inhibitory concentration (IC50) on M2, at human M1 receptor and against M3 were 1000 to 10000 nM, < 100 nM and 1000 to 10000 nM, respectively.

For `N#Cc1ccc(N2CCN3C(=O)[C@@H](CNCc4cccc5ncnn45)C[C@H]3C2)nc1` [Example 5, 6-((7R,8aS)-7-((([1,2,4]triazolo[1,5-a]pyridin-5-ylmethyl)amino)methyl)-6-oxohexahydropyrrolo[1,2-a]pyrazin-2(1H)-yl)nicotinonitrile], the concentration for half-maximal inhibition (IC50) was 1000 to 10000 nM at M2, 100 to 1000 nM at human M1 receptor and > 10000 nM against M3.
